Results: patent US20260083865A1, “PROSTATE SPECIFIC MEMBRANE ANTIGEN (PSMA) LIGANDS AND USE THEREOF” (priority 2022, published 2026)
Read-outs that look alike come from different tables or passages of the source. One block for each compound: values may come before it. Numbered stars: 1 amine (or outer) side, 2 acyl side, 3 side chain; on linkers, the order of the positions; unused ones are H or OH. Bridge positions count the residues as written; N and C are the ends. Square brackets hold non-standard residues; d marks the D form. Peptide text beside a SMILES is read from it. * marks the point of attachment. X7 = O=C(O)CN1CCN(CC(=O)O)CCN(CC(=O)NC2CCN(CC(=O)*)CC2)CCN(CC(=O)O)CC1; DOTA = O=C(O)CN1CCN(CC(=O)O)CCN(CC(=O)*)CCN(CC(=O)O)CC1; X16 = CNC(=N)N(C)CCC[C@H](N[*:1])C(=O)[*:2]; Phe(4-Cl) = N[C@@H](Cc1ccc(Cl)cc1)C(=O)O; Propanoyl(3-SO2NH2) = NS(=O)(=O)CCC(=O)*; Arg(Me) = CNC(=N)NCCC[C@H](N)C(=O)O; X1 = O=C(CC1CCN([*:1])CC1)[*:2]; Lys(Me) = CNCCCC[C@H](N)C(=O)O; Tle = CC(C)(C)[C@H](N)C(=O)O; 4Abz = Nc1ccc(C(=O)O)cc1; Aib = CC(C)(N)C(=O)O; CH2 = C([*:1])[*:2]

Legend:
[1] = biological target: T1, PSMA-expressing C4-2 cells (Homo sapiens, UniProt Q04609); assay: FACS binding assay (competition with 50 nM PSM-0183); conditions: read-out: pIC50 [C4-2] CAT (converted)
T1 construct: PSMA-expressing C4-2 cells (ATCC, Cat. No. CRL-3314) were cultured in RPMI-1640; host or cells: C4-2 cells
T1 sequence (Q04609 whole entry): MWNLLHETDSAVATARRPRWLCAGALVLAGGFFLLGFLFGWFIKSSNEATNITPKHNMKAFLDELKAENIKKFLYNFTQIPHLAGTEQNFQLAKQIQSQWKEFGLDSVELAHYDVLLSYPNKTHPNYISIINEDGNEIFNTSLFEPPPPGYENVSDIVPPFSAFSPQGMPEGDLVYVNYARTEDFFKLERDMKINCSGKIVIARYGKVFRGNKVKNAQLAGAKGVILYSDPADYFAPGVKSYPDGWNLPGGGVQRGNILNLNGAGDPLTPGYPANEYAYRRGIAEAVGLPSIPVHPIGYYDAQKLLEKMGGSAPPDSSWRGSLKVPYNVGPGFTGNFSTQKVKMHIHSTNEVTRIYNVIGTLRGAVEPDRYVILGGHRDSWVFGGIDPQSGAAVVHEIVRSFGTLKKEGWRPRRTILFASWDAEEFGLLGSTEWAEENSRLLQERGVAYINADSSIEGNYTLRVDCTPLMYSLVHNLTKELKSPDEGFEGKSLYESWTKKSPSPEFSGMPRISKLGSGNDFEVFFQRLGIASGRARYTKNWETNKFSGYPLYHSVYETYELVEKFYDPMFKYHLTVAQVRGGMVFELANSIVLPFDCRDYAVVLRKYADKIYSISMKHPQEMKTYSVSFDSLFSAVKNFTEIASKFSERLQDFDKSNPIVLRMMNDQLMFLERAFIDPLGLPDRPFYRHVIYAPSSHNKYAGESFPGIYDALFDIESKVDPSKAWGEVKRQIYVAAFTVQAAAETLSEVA
Outline: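 C4-2 cells were incubated 1 h at 4 °C with 50 nM AF488-labelled peptide PSM-0183 plus increasing test compound concentrations, then washed twice in ice-cold buffer. Median fluorescence in the AF488 channel was read by flow cytometry. IC50/pIC50 was derived by 4PL fitting of MFI versus concentration.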

[2] = biological target: T2, Fc-fusion protein of human PSMA (hPSMA-Fc) (Homo sapiens, UniProt Q04609); assay: Surface plasmon resonance assay (Biacore T200, single cycle kinetic); assay type: binding; conditions: read-out: pKD CAT (converted)
T2 construct: purchased Acro Biosystems PSA-H5264
T2 sequence (Q04609 44-750 limits assumed): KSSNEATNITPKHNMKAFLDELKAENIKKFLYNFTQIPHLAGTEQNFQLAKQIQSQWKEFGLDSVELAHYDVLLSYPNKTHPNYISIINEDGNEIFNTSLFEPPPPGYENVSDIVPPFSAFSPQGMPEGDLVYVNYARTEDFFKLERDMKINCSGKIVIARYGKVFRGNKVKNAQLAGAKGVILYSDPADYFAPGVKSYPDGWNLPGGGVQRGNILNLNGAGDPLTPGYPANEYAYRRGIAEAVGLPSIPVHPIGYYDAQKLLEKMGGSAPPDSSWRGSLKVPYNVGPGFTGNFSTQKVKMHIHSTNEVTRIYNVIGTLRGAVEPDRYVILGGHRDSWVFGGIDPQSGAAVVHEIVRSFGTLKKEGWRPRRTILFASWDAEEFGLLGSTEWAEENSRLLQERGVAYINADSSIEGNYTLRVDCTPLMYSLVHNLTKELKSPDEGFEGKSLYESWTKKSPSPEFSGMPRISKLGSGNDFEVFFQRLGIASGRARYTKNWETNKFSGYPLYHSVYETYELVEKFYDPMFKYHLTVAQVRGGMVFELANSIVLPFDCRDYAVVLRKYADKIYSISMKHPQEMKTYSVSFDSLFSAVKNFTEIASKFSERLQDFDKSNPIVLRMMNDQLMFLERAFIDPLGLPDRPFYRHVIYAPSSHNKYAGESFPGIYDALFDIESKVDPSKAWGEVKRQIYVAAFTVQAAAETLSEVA
Outline: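 hPSMA-Fc was captured (~1000 RU) on an Fc-binding-peptide CM5 chip, and compounds were run in single cycle kinetic mode at 25° C in HBST with 0.1% DMSO. Double-blank-corrected sensorgrams were fitted to a 1:1 Langmuir model to give KD, reported as pKD.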

[3] = FACS binding, C4-2 cells, category
[4] = pIC50 category of FACS binding, C4-2 cells
[5] = pKD category for PSMA SPR activity assay, hPSMA-Fc, 25° C.

SMILES: C[C@@H](O)[C@H](NC(=O)[C@@H](NC(=O)[C@@H]1CSSC[C@H](NC(=O)[C@H](Cc2ccc(Cl)cc2)NC(=O)C(C)(C)NC(=O)CCS(N)(=O)=O)C(=O)N[C@@H](CCCCN)C(=O)N[C@@H](CCCNC(=N)N)C(=O)N[C@@H](CCCCNC(=O)CN2CCC(NC(=O)CN3CCN(CC(=O)O)CCN(CC(=O)O)CCN(CC(=O)O)CC3)CC2)C(=O)N[C@@H](CC(N)=O)C(=O)N1)C(C)(C)C)C(N)=O [PSM-0188, SaPr-Aib-Pcf-[Cys-Lys-Arg-Lys(DOTA-APAc)-Asn-Cys]-Tle-Thr-NH2] ({Propanoyl(3-SO2NH2)}-[Aib][Phe(4-Cl)]CKRK(X7)NC[Tle]T-NH2; disulfide 3-8)
IC50 ([1]; FACS binding, C4-2 cells, competition with 50 nM PSM-0183, category): < 200 nM | Kd ([2]; SPR, hPSMA-Fc, single cycle kinetic, 25° C., category): < 12.6 nM

SMILES: CC(=O)N[C@H](C(=O)NC(C)(C)C(=O)N[C@@H](Cc1ccc(Cl)cc1)C(=O)N[C@H]1CSSC[C@@H](C(=O)N[C@H](C(=O)N[C@H](C(=O)N2CCC(CC(=O)N[C@H](CCCCNC(=O)CN3CCN(CC(=O)O)CCN(CC(=O)O)CCN(CC(=O)O)CC3)C(N)=O)CC2)[C@@H](C)O)C(C)(C)C)NC(=O)[C@H](CC(N)=O)NC(=O)C(C)(C)NC(=O)[C@H](CCCNC(=N)N)NC(=O)[C@H](CCCCN)NC1=O)[C@@H](C)O [PSM-0482, Ac-Thr-Aib-Pcf-[Cys-Lys-Arg-Aib-Asn-Cys]-Tle-Thr-Cmp-lys(DOTA)-NH2] (Ac-T[Aib][Phe(4-Cl)]CKR[Aib]NC[Tle]T[X1][dK](DOTA)-NH2; disulfide 4-9)
IC50 [1, 4]: < 200 nM | Kd [2, 5]: < 12.6 nM

SMILES: C[C@@H](O)[C@H](NC(=O)[C@@H](NC(=O)[C@@H]1CSSC[C@H](NC(=O)[C@H](Cc2ccccc2)NC(=O)C(C)(C)NC(=O)c2ccc(NC(=O)CN3CCN(CC(=O)O)CCN(CC(=O)O)CCN(CC(=O)O)CC3)cc2)C(=O)N[C@@H](CCCCN)C(=O)N[C@@H](CCCNC(=N)N)C(=O)NC(C)(C)C(=O)N[C@@H](CC(N)=O)C(=O)N1)C(C)(C)C)C(N)=O [PSM-0316, DOTA-Pab-Aib-Phe-[Cys-Lys-Arg-Aib-Asn-Cys]-Tle-Thr-NH2] ({DOTA-4Abz}-[Aib]FCKR[Aib]NC[Tle]T-NH2; disulfide 3-8)
IC50 ([1]; FACS binding, PSMA-expressing C4-2 cells, pIC50 category): < 200 nM | Kd ([2]; PSMA SPR assay, hPSMA-Fc, 25° C., pKD category): < 12.6 nM

SMILES: CC(=O)N[C@H](C(=O)NC(C)(C)C(=O)N[C@@H](Cc1ccccc1)C(=O)N[C@H]1CSSC[C@@H](C(=O)N[C@H](C(=O)N[C@@H](CC(C)C)C(N)=O)C(C)(C)C)NC(=O)[C@H](CC(N)=O)NC(=O)C(C)(C)NC(=O)[C@H](CCCNC(=N)N)NC(=O)[C@H](CCCCN)NC1=O)[C@@H](C)O [PSM-0453, Ac-Thr-Aib-Phe-[Cys-Lys-Arg-Aib-Asn-Cys]-Tle-Leu-NH2] (Ac-T[Aib]FCKR[Aib]NC[Tle]L-NH2; disulfide 4-9)
IC50 [1, 4]: < 200 nM | Kd [2, 5]: < 12.6 nM

Second part, the compound after the results:

IC50 [1, 3]: < 200 nM | Kd ([2]; PSMA SPR assay, category): < 12.6 nM
SMILES: CNCCCC[C@@H]1NC(=O)[C@@H](NC(=O)[C@H](Cc2ccc(Cl)cc2)NC(=O)C(C)(C)NC(=O)[C@@H](NC(=O)CC2CCN(C(=O)CN3CCN(CC(=O)O)CCN(CC(=O)O)CCN(CC(=O)O)CC3)CC2)[C@@H](C)O)CSSC[C@@H](C(=O)N[C@H](C(=O)N[C@H](C(N)=O)[C@@H](C)O)C(C)(C)C)NC(=O)[C@H](CC(N)=O)NC(=O)C(C)(C)NC(=O)[C@H](CCCN(C)C(=N)NC)NC1=O [PSM-0590, DOTA-Cmp-Thr-Aib-Pcf-[Cys-Lys(Me)-RMe2a-Aib-Asn-Cys]-Tle-Thr-NH2] ({DOTA}-[X1]T[Aib][Phe(4-Cl)]C[Lys(Me)][X16][Aib]NC[Tle]T-NH2; disulfide 5-10)

IC50 [1, 3]: 1260 to 3160 nM | Kd ([2]; PSMA SPR assay, category): > 501 nM
SMILES: CNCCCC[C@@H]1NC(=O)[C@@H](NC(=O)[C@H](Cc2ccc(Cl)cc2)NC(=O)C(C)(C)NC(=O)[C@@H](NC(=O)CC2CCN(C(=O)CN3CCN(CC(=O)O)CCN(CC(=O)O)CCN(CC(=O)O)CC3)CC2)[C@@H](C)O)CSSC[C@@H](C(=O)O)NC(=O)[C@H](CC(N)=O)NC(=O)C(C)(C)NC(=O)[C@H](CCCNC(=N)NC)NC1=O [PSM-0594, DOTA-Cmp-Thr-Aib-Pcf-[Cys-Lys(Me)-Arg(Me)-Aib-Asn-Cys]-OH] ({DOTA}-[X1]T[Aib][Phe(4-Cl)]C[Lys(Me)][Arg(Me)][Aib]NC-OH; disulfide 5-10)

IC50 [1, 4]: < 200 nM | Kd [2, 5]: < 12.6 nM
SMILES: CNCCCC[C@@H]1NC(=O)[C@@H](NC(=O)[C@H](Cc2ccc(Cl)cc2)NC(=O)C(C)(C)NC(=O)[C@@H](NC(=O)CC2CCN(C(=O)CN3CCN(CC(=O)O)CCN(CC(=O)O)CCN(CC(=O)O)CC3)CC2)[C@@H](C)O)CSCSC[C@@H](C(=O)N[C@H](C(N)=O)C(C)(C)C)NC(=O)[C@H](CC(N)=O)NC(=O)C(C)(C)NC(=O)[C@H](CCCNC(=N)NC)NC1=O [PSM-0420, DOTA-Cmp-Thr-Aib-Pcf-[Smc-Lys(Me)-Arg(Me)-Aib-Asn-Cys]-Tle-NH2] ({DOTA}-[X1]T[Aib][Phe(4-Cl)]C[Lys(Me)][Arg(Me)][Aib]NC[Tle]-NH2; linker 5-10 via CH2)
